Where two headings read alike, the source gives them in different places.
Experiment: Multiple ascending dose study, plasma pharmacokinetics of Compound (1) and GHB
Format: in vivo, human
Details: for AUC(0-inf) / AUC(0-t) / Cmax / half-life / Tmax: human, plasma, oral; for Tmax: read-out: Compound (1) plasma Tmax, Median
Method: The plasma concentrations of Compound (1) and GHB in plasma in healthy human subjects were measured using liquid chromatography tandem mass-spectroscopy and evaluated using PHOENIX™ WINNONLIN® version 8.1 (Pharsight Corporation, USA) and MICROSOFT® EXCEL® (Microsoft Corporation, USA).
All randomized subjects who received Compound (1), with available pharmacokinetic (PK) data and without relevant deviations interfering with the PK evaluations, were included. Subjects who received only placebo were excluded from the PK population. In addition, the PK population was used for the summaries and analyses of all PK data.
A multiple ascending dose study was undertaken to evaluate the pharmacokinetics of multiple doses of Compound (1) in 3 cohorts of healthy subjects (with 8 subjects/cohort). Within each cohort, the subjects were randomized to receive Compound (1) or placebo at a ratio of 6:2 (active: placebo) for 7 days (or up to 9 days if the cohort included a titration period).
After fasting for at least 3 hours following a standard meal, subjects were randomized on Day 1 and the first dose of study drug (either target dose or titration dose) was administered. The first cohort of subjects (Cohort 8) received the second dose administration at approximately four hours after receiving the first dose. The subsequent […] cohorts (Cohorts 9 and 10) received only one dose per day.
For the first cohort (Cohort 8), the dose used was 6.0 g divided into two equal doses four hours apart for 7 days starting from Day 4 “Dose Day 1” to Day 10 “Dose Day 7”. Subsequent Cohorts 9, 10 received a single daily dose of 4.5 g and 6.0 g during the titration period (Day 1 for Cohort 9, Day 1 and Day 2 for Cohort 10, and after a titration period for 7 days starting from Day 4 “Dose Day 1” to Day 10 “Dose Day 7”. Cohort 11 was not conducted due to API availability.

[1] = Cohort 10 (6.0 g/day in a single dose), Dosing Day 10

## CC(C)[C@H](N)C(=O)OCCCC(=O)O [Compound (1), 4-((L-valyl)oxy)butanoic acid]
Cohort 10 (6.0 g/day in a single dose), Dosing Day 4
  Compound (1) plasma Tmax, Min: 19.8 min
[1]
  Compound (1) CL/F, Max: 575 L/h
  Compound (1) CL/F, Mean: 395 L/h
  Compound (1) CL/F, Median: 354 L/h
  Compound (1) CL/F, Min: 284 L/h
  Compound (1) plasma AUC0-inf, Max: 21100 ng·h/mL
  Compound (1) plasma AUC0-inf, Min: 10400 ng·h/mL
  Compound (1) plasma AUC0-tlast, Max: 21100 ng·h/mL
  Compound (1) plasma AUC0-tlast, Min: 10400 ng·h/mL
  Compound (1) plasma Cmax, Max: 24500 ng/mL
  Compound (1) plasma Cmax, Min: 11700 ng/mL
  Compound (1) plasma T1/2, Max: 31.2 min
  Compound (1) plasma T1/2, Min: 17.4 min
4.5 g/day, Cohort 9 (4.5 g/day in a single dose), Dosing Day 4, read-out: Compound (1) plasma AUC0-inf, Mean
  AUC(0-inf): 12000 ng·h/mL
4.5 g/day, Cohort 9 (4.5 g/day in a single dose), Dosing Day 4, read-out: Compound (1) plasma AUC0-inf, Median
  AUC(0-inf): 11800 ng·h/mL
4.5 g/day, Cohort 9 (4.5 g/day in a single dose), Dosing Day 4, read-out: Compound (1) plasma AUC0-tlast, Mean
  AUC(0-t): 11300 ng·h/mL
4.5 g/day, Cohort 9 (4.5 g/day in a single dose), Dosing Day 4, read-out: Compound (1) plasma AUC0-tlast, Median
  AUC(0-t): 11700 ng·h/mL
4.5 g/day, Cohort 9 (4.5 g/day in a single dose), Dosing Day 4, read-out: Compound (1) plasma Cmax, Mean
  Cmax: 15600 ng/mL
4.5 g/day, Cohort 9 (4.5 g/day in a single dose), Dosing Day 4, read-out: Compound (1) plasma Cmax, Median
  Cmax: 16800 ng/mL
4.5 g/day, Cohort 9 (4.5 g/day in a single dose), Dosing Day 4, read-out: Compound (1) plasma T1/2, Mean (converted)
  half-life: 29.4 min
4.5 g/day, Cohort 9 (4.5 g/day in a single dose), Dosing Day 4, read-out: Compound (1) plasma T1/2, Median (converted)
  half-life: 32.4 min
4.5 g/day, Cohort 9 (4.5 g/day in a single dose), Dosing Day 10, read-out: Compound (1) plasma AUC0-inf, Mean
  AUC(0-inf): 10800 ng·h/mL
4.5 g/day, Cohort 9 (4.5 g/day in a single dose), Dosing Day 10, read-out: Compound (1) plasma AUC0-inf, Median
  AUC(0-inf): 10200 ng·h/mL
4.5 g/day, Cohort 9 (4.5 g/day in a single dose), Dosing Day 10, read-out: Compound (1) plasma AUC0-tlast, Mean
  AUC(0-t): 10700 ng·h/mL
4.5 g/day, Cohort 9 (4.5 g/day in a single dose), Dosing Day 10, read-out: Compound (1) plasma AUC0-tlast, Median
  AUC(0-t): 10100 ng·h/mL
4.5 g/day, Cohort 9 (4.5 g/day in a single dose), Dosing Day 10, read-out: Compound (1) plasma Cmax, Mean
  Cmax: 14800 ng/mL
4.5 g/day, Cohort 9 (4.5 g/day in a single dose), Dosing Day 10, read-out: Compound (1) plasma Cmax, Median
  Cmax: 15900 ng/mL
4.5 g/day, Cohort 9 (4.5 g/day in a single dose), Dosing Day 10, read-out: Compound (1) plasma T1/2, Mean (converted)
  half-life: 33.6 min
4.5 g/day, Cohort 9 (4.5 g/day in a single dose), Dosing Day 10, read-out: Compound (1) plasma T1/2, Median (converted)
  half-life: 33.6 min
6 g/day, Cohort 8 (6.0 g/day divided into equal 2 doses), Dosing Day 4, read-out: Compound (1) plasma AUC0-inf, Mean
  AUC(0-inf): 14500 ng·h/mL
6 g/day, Cohort 8 (6.0 g/day divided into equal 2 doses), Dosing Day 4, read-out: Compound (1) plasma AUC0-inf, Median
  AUC(0-inf): 14800 ng·h/mL
6 g/day, Cohort 8 (6.0 g/day divided into equal 2 doses), Dosing Day 4, read-out: Compound (1) plasma AUC0-tlast, Mean
  AUC(0-t): 14400 ng·h/mL
6 g/day, Cohort 8 (6.0 g/day divided into equal 2 doses), Dosing Day 4, read-out: Compound (1) plasma AUC0-tlast, Median
  AUC(0-t): 14800 ng·h/mL
6 g/day, Cohort 8 (6.0 g/day divided into equal 2 doses), Dosing Day 4, read-out: Compound (1) plasma Cmax, Mean
  Cmax: 12100 ng/mL
6 g/day, Cohort 8 (6.0 g/day divided into equal 2 doses), Dosing Day 4, read-out: Compound (1) plasma Cmax, Median
  Cmax: 11500 ng/mL
6 g/day, Cohort 8 (6.0 g/day divided into equal 2 doses), Dosing Day 4, read-out: Compound (1) plasma T1/2, Mean (converted)
  half-life: 31.8 min
6 g/day, Cohort 8 (6.0 g/day divided into equal 2 doses), Dosing Day 4, read-out: Compound (1) plasma T1/2, Median (converted)
  half-life: 16.2 min
6 g/day, Cohort 8 (6.0 g/day divided into equal 2 doses), Dosing Day 10, read-out: Compound (1) plasma AUC0-inf, Mean
  AUC(0-inf): 14900 ng·h/mL
6 g/day, Cohort 8 (6.0 g/day divided into equal 2 doses), Dosing Day 10, read-out: Compound (1) plasma AUC0-inf, Median
  AUC(0-inf): 14100 ng·h/mL
6 g/day, Cohort 8 (6.0 g/day divided into equal 2 doses), Dosing Day 10, read-out: Compound (1) plasma AUC0-tlast, Mean
  AUC(0-t): 14800 ng·h/mL
6 g/day, Cohort 8 (6.0 g/day divided into equal 2 doses), Dosing Day 10, read-out: Compound (1) plasma AUC0-tlast, Median
  AUC(0-t): 14100 ng·h/mL
6 g/day, Cohort 8 (6.0 g/day divided into equal 2 doses), Dosing Day 10, read-out: Compound (1) plasma Cmax, Mean
  Cmax: 11500 ng/mL
6 g/day, Cohort 8 (6.0 g/day divided into equal 2 doses), Dosing Day 10, read-out: Compound (1) plasma Cmax, Median
  Cmax: 11300 ng/mL
6 g/day, Cohort 8 (6.0 g/day divided into equal 2 doses), Dosing Day 10, read-out: Compound (1) plasma T1/2, Mean (converted)
  half-life: 20.4 min
6 g/day, Cohort 8 (6.0 g/day divided into equal 2 doses), Dosing Day 10, read-out: Compound (1) plasma T1/2, Median (converted)
  half-life: 16.8 min
6 g/day, Cohort 10 (6.0 g/day in a single dose), Dosing Day 4, read-out: Compound (1) plasma AUC0-inf, Mean
  AUC(0-inf): 17200 ng·h/mL
6 g/day, Cohort 10 (6.0 g/day in a single dose), Dosing Day 4, read-out: Compound (1) plasma AUC0-inf, Median
  AUC(0-inf): 19000 ng·h/mL
6 g/day, Cohort 10 (6.0 g/day in a single dose), Dosing Day 4, read-out: Compound (1) plasma AUC0-tlast, Mean
  AUC(0-t): 17100 ng·h/mL
6 g/day, Cohort 10 (6.0 g/day in a single dose), Dosing Day 4, read-out: Compound (1) plasma AUC0-tlast, Median
  AUC(0-t): 18900 ng·h/mL
6 g/day, Cohort 10 (6.0 g/day in a single dose), Dosing Day 4, read-out: Compound (1) plasma Cmax, Mean
  Cmax: 21300 ng/mL
6 g/day, Cohort 10 (6.0 g/day in a single dose), Dosing Day 4, read-out: Compound (1) plasma Cmax, Median
  Cmax: 23500 ng/mL
6 g/day, Cohort 10 (6.0 g/day in a single dose), Dosing Day 4, read-out: Compound (1) plasma T1/2, Mean (converted)
  half-life: 24.6 min
6 g/day, Cohort 10 (6.0 g/day in a single dose), Dosing Day 4, read-out: Compound (1) plasma T1/2, Median (converted)
  half-life: 24 min
6 g/day, Cohort 10 (6.0 g/day in a single dose), Dosing Day 10, read-out: Compound (1) plasma AUC0-inf, Mean
  AUC(0-inf): 16400 ng·h/mL
6 g/day, Cohort 10 (6.0 g/day in a single dose), Dosing Day 10, read-out: Compound (1) plasma AUC0-inf, Median
  AUC(0-inf): 16900 ng·h/mL
6 g/day, Cohort 10 (6.0 g/day in a single dose), Dosing Day 10, read-out: Compound (1) plasma AUC0-tlast, Mean
  AUC(0-t): 16300 ng·h/mL
6 g/day, Cohort 10 (6.0 g/day in a single dose), Dosing Day 10, read-out: Compound (1) plasma AUC0-tlast, Median
  AUC(0-t): 16800 ng·h/mL
6 g/day, Cohort 10 (6.0 g/day in a single dose), Dosing Day 10, read-out: Compound (1) plasma Cmax, Mean
  Cmax: 18900 ng/mL
6 g/day, Cohort 10 (6.0 g/day in a single dose), Dosing Day 10, read-out: Compound (1) plasma Cmax, Median
  Cmax: 20000 ng/mL
6 g/day, Cohort 10 (6.0 g/day in a single dose), Dosing Day 10, read-out: Compound (1) plasma T1/2, Mean (converted)
  half-life: 21.6 min
6 g/day, Cohort 10 (6.0 g/day in a single dose), Dosing Day 10, read-out: Compound (1) plasma T1/2, Median (converted)
  half-life: 21 min
Cohort 8 (6.0 g/day divided into equal 2 doses), Dosing Day 4
  Tmax: 30 min
Cohort 9 (4.5 g/day in a single dose), Dosing Day 4
  Tmax: 30 min

— patent US11896573B2, “Pharmaceutical compositions and pharmacokinetics of a gamma-hydroxybutyric acid derivative” (priority 2020, dated 2024)
